Measured values: PubChem BioAssay (NCI)
“And” between values parts separate entries of the source, which are not always exact repeats. Identical values can stand only once.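 All cell lines were grown in 96-well plates and treated with compound for 48 hours. GI50: concentration for 50% inhibition of growth. TGI: concentration producing complete growth inhibition.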

Experiments:
Test in all cases: inhibition of tumour cell growth, NCI panel, 48 h
OVCAR-4 ovarian = system: OVCAR-4 ovarian
DU-145 prostate = system: DU-145 prostate
HL-60(TB) leukemia = system: HL-60(TB) leukemia
A498 renal = system: A498 renal
NCI-H460 lung = system: NCI-H460 lung
OVCAR-8 ovarian = system: OVCAR-8 ovarian
786-0 renal = system: 786-0 renal
MDA-MB-435 = system: MDA-MB-435
CAKI-1 renal = system: CAKI-1 renal
SK-MEL-28 melanoma = system: SK-MEL-28 melanoma

Structure (SMILES) | GI50 (OVCAR-4 ovarian) | TGI (OVCAR-4 ovarian) | GI50 (DU-145 prostate) | TGI (DU-145 prostate) | GI50 (HL-60(TB) leukemia) | TGI (HL-60(TB) leukemia) | GI50 (A498 renal) [µM] | TGI (A498 renal) [µM] | GI50 (NCI-H460 lung) | TGI (NCI-H460 lung) | GI50 (OVCAR-8 ovarian) | TGI (OVCAR-8 ovarian) | GI50 (786-0 renal) | TGI (786-0 renal) | GI50 (MDA-MB-435) | TGI (MDA-MB-435) | GI50 (CAKI-1 renal) | TGI (CAKI-1 renal) | GI50 (SK-MEL-28 melanoma) | TGI (SK-MEL-28 melanoma)
Cc1ccc(C(SCC(N)C(=O)O)(c2ccc(C)cc2)c2ccc(C)cc2)cc1 (configuration not stated) | 11.3 µM | > 48.3 µM | 2.45 µM | 5.59 µM | 2.53 µM | 8.09 µM | 4.04 | 14.6 | 2.3 µM | 12 µM | 2.36 µM | 17.4 µM | 4.93 µM | 30.1 µM | 0.337 µM | 1.16 µM | 2.74 µM | 12.5 µM | 7.47 µM | 22.7 µM
C=CC(C1=CC(=O)C(OC)=CC1=O)c1ccccc1 (configuration not stated) | – | 30.1 µM | – | 30.2 µM | – | 6.72 µM | – | > 100 | – | 36.3 µM | – | 58.7 µM | – | 28.4 µM | – | 28.3 µM | – | 31.7 µM | – | 29.1 µM
COc1ccc2cc(-c3cc4c(oc3=O)-c3ccccc3OC4O)c(=O)oc2c1 (configuration not stated) | 12.3 µM | 28.9 µM | 14.3 µM | 27.4 µM | > 100 µM | > 100 µM | 17.3 | 33.5 | 16.7 µM | 34.7 µM | 17.5 µM | 35.3 µM | 25.4 µM | 41.5 µM | 16.4 µM | 36 µM | 14.9 µM | 29.8 µM | 16.7 µM | 32.2 µM
COc1cc(-c2nc3ccccc3s2)ccc1NC(=O)COc1ccc(Cl)cc1 | 3.9 µM | 93.2 µM | 8.28 µM | > 100 µM | > 100 µM | > 100 µM | 44.5 | > 100 | 2.99 µM | > 100 µM | 2.79 µM | 46.6 µM | 1.96 µM | 4 µM | 8.16 µM | > 100 µM | 6.95 µM | > 100 µM | 6.33 µM | 71.3 µM
Cn1cc(C2=C(c3cn(C)c4c([N+](=O)[O-])cccc34)C(=O)NC2=O)c2ccccc21 | > 25 µM | > 25 µM | > 25 µM | > 25 µM | > 25 µM | > 25 µM | > 25 | > 25 | > 25 µM | > 25 µM | > 25 µM | > 25 µM | > 25 µM | > 25 µM | > 25 µM | > 25 µM | > 25 µM | > 25 µM | > 25 µM | > 25 µM
COc1ccc(C(=O)COC(=O)[C@H](C[Se][Se]C[C@H](NC(=O)c2ccc(Br)cc2F)C(=O)OCC(=O)c2ccc(OC)cc2)NC(=O)c2ccc(Br)cc2F)cc1 | 1.64 µM | 3.1 µM | 0.843 µM | 2.68 µM | 2.72 µM | 12.2 µM | 0.896 | 8.84 | 0.353 µM | 1.31 µM | 0.513 µM | 1.86 µM | 0.433 µM | 1.46 µM | 1.51 µM | 5.05 µM | 1 µM | 2.97 µM | 1.59 µM | 5.61 µM
COc1ccc2c(c1)[n+](=O)c(C(=O)c1ccco1)c(C(F)(F)F)n2[O-] | – | – | 2.12 µM | 14.5 µM | 3.29 µM | > 100 µM | 3.98 | 16 | 1.72 µM | 15.6 µM | 2.23 µM | 9.41 µM | 3.83 µM | 54.1 µM | 3.08 µM | 14.5 µM | 0.642 µM | 4.54 µM | 12.3 µM | 94.9 µM
O=C(CN(/C=C/C(=O)C(F)(F)F)c1ccc(Cl)cc1)c1ccccc1 | – | – | 18 µM | 43.4 µM | 17.3 µM | 66.7 µM | 22 | 43.1 | 52.9 µM | > 100 µM | 44 µM | > 100 µM | 13.5 µM | 31.3 µM | 10.8 µM | 39 µM | 0.933 µM | 22.8 µM | 17.3 µM | 37.5 µM
COC1CCN(C(=O)c2cc(Cc3n[nH]c(=O)c4ccccc34)ccc2F)CC1 | 36.7 µM | > 100 µM | > 85.7 µM | > 100 µM | > 85.3 µM | > 100 µM | > 41.2 | > 100 | 25.6 µM | > 100 µM | > 73.2 µM | > 100 µM | > 100 µM | > 100 µM | > 100 µM | > 100 µM | 32.3 µM | > 100 µM | > 100 µM | > 100 µM
CN(C)CCNC(=O)C(C)(C)Oc1ccc(C(=O)c2ccc(Cl)cc2)cc1Cl | – | 28 µM | 2.7 µM | 26.1 µM | 2.82 µM | > 29.1 µM | – | 30.7 | – | 20.4 µM | – | 24.5 µM | 3.37 µM | 13.6 µM | – | 17.2 µM | – | 26.2 µM | 2.63 µM | 5.14 µM and 3.58 µM
Clc1cccc(Cl)c1C1CSc2ccccc2N=C1c1ccccc1 (configuration not stated) | 3.11 µM | 16 µM | 5.74 µM | 18.3 µM | 8.2 µM | 38.7 µM | 13.1 | 26.6 | 4.04 µM | 15.6 µM | 3.34 µM | 10.2 µM | 10.7 µM | 23 µM | 3.59 µM | 13.6 µM | 10.6 µM | 29.8 µM | 4.82 µM | 17.3 µM
C=CC(=O)NCc1cccc(Nc2ncc(Br)c(NCCCNC(=O)C3CCC3)n2)c1 | 1.67 µM and 1.2 µM | 6.07 µM and 12.8 µM | 1.25 µM and 1.36 µM | 12.5 µM and 19.4 µM | 0.821 µM and 0.893 µM | 5.96 µM and > 25 µM | 0.549 | 2.08 | 0.941 µM and 1.27 µM | 4.7 µM and 5.55 µM | 1.99 µM and 1.72 µM | 12.5 µM and > 25 µM | 1.29 µM and 1.26 µM | 6.16 µM and > 25 µM | 2.33 µM and 2.14 µM | 8.47 µM and 5.75 µM | 0.279 µM and 0.262 µM | 1.45 µM and 1.48 µM | 2.44 µM and 2.26 µM | 9.94 µM and 9.29 µM
Nc1nc2c(s1)CCc1c-2c(Br)n(Cc2ccccc2)c1Br | – | – | 16.1 µM | 37.3 µM | 5.64 µM | 37.1 µM | 17.3 | 33.8 | 21.3 µM | 52.9 µM | 6.48 µM | 64.2 µM | 7.11 µM | 22.9 µM | 8.57 µM | 30.7 µM | 3.14 µM | 12.1 µM | 12.9 µM | 26.2 µM
Cc1ccc(S(=O)(=O)N2CCSCCN(S(=O)(=O)c3ccc(C)cc3)CCN(S(=O)(=O)c3ccc(C)cc3)CC2)cc1 | – | > 100 µM | – | > 100 µM | – | > 100 µM | – | > 100 | – | > 100 µM | – | > 100 µM | – | 73.9 µM | – | > 100 µM | – | – | – | > 100 µM
